From patent publication US9840716B2, “Resveratrol-enriched rice and the use thereof” (REPUBLIC OF KOREA (MANAGEMENT: RURAL DEVELOPMENT …, priority 2012, dated 2017)

What was measured:
[1] = test system: animal models (mice) induced with a metabolic disease by a long-term high fat diet; assay: Comparative measurement of blood glucose in animal models induced with a metabolic disease; type: in vivo, C57BL/6 inbred mice; conditions: 12 weeks of feeding, compared with control or comparison groups
Source text: The effects of rice containing resveratrol of the present invention at high concentration on a metabolic disease were examined using animal models (mice) induced with a metabolic disease by a long-term high fat diet. Particularly, each of 15 C57BL/6 inbred mice was fed with a high fat diet for 12 weeks, thereby establishing models induced with a metabolic disease such as diabetes, obesity, hyperlipidemia, hypercholesterolemia, etc. Next, the feed produced from seeds of transformed rice or Dongjin rice was distributed to animals for 12 weeks. After 12 weeks of distribution, via blood sampling from a tail vein once every 3 weeks, blood glucose, cholesterol, etc., were analyzed, thereby examining the effects of resveratrol-enriched transgenic rice and transformed rice in animal models induced with a metabolic disease. As described above, after feeding feed for experimental animals, in which carbohydrate components were replaced with Dongjin rice and resveratrol-enriched transgenic rice to mice induced with a metabolic disease, the level of blood glucose was measured (FIG. 2). […] As described above, after feeding the feed, in which carbohydrate components were replaced with Dongjin rice and resveratrol-enriched transgenic rice, to mice with an induced metabolic disease, the level of blood glucose was measured (FIG. 5).

yeasts = conditions: on average, when resveratrol is added; cited from earlier work

Oc1ccc(C=Cc2cc(O)cc(O)c2)cc1 [resveratrol]
blood glucose level (result in words) [1]: did not show a remarkable difference
increase of the life span of yeasts (yeasts): 70%
